Measurements from publication PMC6459958, “NEP-TC a rRNA Methyltransferase Involved on Somatic Embryogenesis of Tamarillo (Solanum betaceum Cav.)” (Frontiers in Plant Science, 2019).

Target: NEP-TC (Solanum betaceum, UniProt I1W0V3)
Experiment: coupled colorimetric SAM methyltransferase assay (SAH production, […] nm)
Format: biochemical
Conditions: methyl donor; co-substrate rRNA or total RNA from non-embryogenic calli

Chain of NEP-TC (I1W0V3 1-221): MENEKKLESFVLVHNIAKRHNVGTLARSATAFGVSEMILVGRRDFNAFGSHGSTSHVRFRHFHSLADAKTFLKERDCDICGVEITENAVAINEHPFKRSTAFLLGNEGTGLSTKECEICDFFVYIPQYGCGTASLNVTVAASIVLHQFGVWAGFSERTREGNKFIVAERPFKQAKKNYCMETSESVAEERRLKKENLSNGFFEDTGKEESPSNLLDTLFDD

SMILES: C[S+](CC[C@H](N)C(=O)O)C[C@H]1O[C@@H](n2cnc3c(N)ncnc32)[C@H](O)[C@@H]1O (stereo partly shown) [SAM]
- coupled colorimetric SAM methyltransferase assay (SAH production, 510 nm): production of SAH in SAM-dependent methylation reactions
